The values below come from patent US20140123342A1, “Regulation of Stomatal Apertures by Apyrases and Extracellular Nucleotides” (BOARD OF REGENTS, THE UNIVERSITY OF TEXAS SYSTEM, priority 2011, published 2014).

Structures are written as SMILES.

In this assay the test system is guard cells of x-luc1 and x-luc9 ecto-luciferase lines. The assay can be described thus: Ecto-luciferase luminescence imaging of extracellular ATP in epidermal peels. It is filed as cell-based, Arabidopsis thaliana. As to conditions: 10 μM. From the text:
Ecto-luciferase Construct and Plant Transformation: The nucleotide sequence for the 24 amino acid, cleavable signal peptide from the Brassica pollen coat protein, S-locus cysteine-rich protein (SCR13; AF195626) was used to target luciferase for secretion (Schopfer et al., 1999). The signal peptide was incorporated at the N-terminus of the luciferase gene by PCR and the SCR13 signal peptide modified luciferase PCR product was then ligated into the binary vector pLBJ21. This construct was then transformed into Agrobacterium tumefaciens strain GV3101 (pMP90) and then transformed into Arabidopsis plants (Col-0) using the floral dipping method (Clough and Bent, 1998). Transgenic plants were selected by planting on solidified Murashige and Skoog (MS) medium (4.3 g/L Murashige and Skoog salts (Sigma), 0.5% (w/v) MES, and 1.0% (w/v) agar, raised to pH 5.7 with 5 M KOH) containing 50 μg/mL kanamycin. Segregation of T3 generation on kanamycin plates was analysed in order to obtain homozygous lines. Plants showing kanamycin resistance were checked for luciferase activity by growing transgenic plants in MS medium for 10 days and then transferring the whole seedlings into test tubes. Luminescence measurements were performed by placing the test tubes in the light-tight housing of the luminometer reader (Dynatech). Experimental solutions with luciferin substrate with and without 1 mM ATP were injected by an automatic injector, and after 3 seconds counting started at 0.2 second time intervals.
Imaging of Luminescence in Ecto-luciferase Plants: Ecto-luciferase seeds were surface-sterilized, stratified in the dark in 4° C. for at least three days and then planted directly on a cellophane membrane placed upon solidified MS with 1.0% (w/v) agar. Planted plates were placed upright in a culture chamber and grown at 23° C. under 24-h fluorescent light for 7 days. Plates were then reoriented so that the solidified MS medium was at the bottom of the plate and the seedling was able to grow up into the empty space of the petri dish. Seedlings were then allowed to mature for up to 4 weeks under identical temperature and light settings. For “dark” studies petri dishes of 3-4 week old plants were placed in a dark chamber for 24 hours prior to use in the studies.
Mature basal leaves were excised from x-luc1 and x-luc9 plants 3-4 weeks old. Peels were taken and then immediately floated with the abaxial side up in 40 μL, of Arabidopsis leaf buffer on a microscope slide and the chemical being tested in either light or dark conditions depending on the experimental setup. The placing of the peels within their respective solution was considered time zero. Peels were treated for a minimum of 5 minutes before luciferin and flash buffer were added to the solution. […] Luminescence was integrated over 120 seconds, High Gain, Read Out set to slow, using 4×4 pixel binning with Cosmic Suppression on, Background Correction off, and Flatfield Correction off with the filter set to Photo.
All luminescence analysis was conducted using the indiGO Analysis Software (version 2.0.0.26). All images consisted of a photographic image in grayscale with an overlaid luminescence image in pseudo color. […]

As for `CC1=CC(=O)CC(C)(C)[C@@]1(O)/C=C/C(C)=C\C(=O)O` [ABA, abscisic acid], the “ecto-luciferase luminescence in the location of stomata, average” value (5 min, x-luc9 peels, open stomata, light) amounted to 3.57 cps. Also, the “ecto-luciferase luminescence after return to control levels” value (after 15 min of continuous exposure) is “about 0.80 cps”.
